SMILES strings stand for the structures. “And” between values parts separate entries of the source, which are not always exact repeats. Equal entries are not always repeated. A value given as a limit tells only on which side of the number the result lay.

The source of these data is patent publication US11497751B2, “Modulators of Rho-associated protein kinase” (Redx Pharma PLC, priority 2018, dated 2022).

T1 sequence (O75116 11-552): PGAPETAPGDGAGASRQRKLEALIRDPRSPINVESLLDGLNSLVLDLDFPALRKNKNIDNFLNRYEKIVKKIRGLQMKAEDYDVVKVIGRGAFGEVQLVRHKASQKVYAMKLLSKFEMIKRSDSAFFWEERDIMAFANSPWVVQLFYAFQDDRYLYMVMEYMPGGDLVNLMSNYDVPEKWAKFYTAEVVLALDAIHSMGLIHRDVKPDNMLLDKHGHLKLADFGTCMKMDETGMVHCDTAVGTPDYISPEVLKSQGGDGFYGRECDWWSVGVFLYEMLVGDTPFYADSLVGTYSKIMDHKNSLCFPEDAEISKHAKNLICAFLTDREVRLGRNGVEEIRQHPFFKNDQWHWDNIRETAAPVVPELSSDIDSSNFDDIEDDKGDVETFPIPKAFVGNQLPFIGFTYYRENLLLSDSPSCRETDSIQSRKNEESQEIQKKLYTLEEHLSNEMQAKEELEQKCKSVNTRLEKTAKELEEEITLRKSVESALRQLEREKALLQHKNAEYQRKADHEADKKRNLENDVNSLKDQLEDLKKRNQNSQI

The experiment addresses T1, N-terminal 6His-tagged ROCK2 catalytic domain 11-552 (Homo sapiens, UniProt O75116).
T1 construct: N-terminal 6His-tagged ROCK2 catalytic domain 11-552; 6His (N); purchased Dundee University, UK; host or cells: baculovirus expression system
The experiment in a line: ROCK2 binding activity: ROCK2 inhibition, ADP-Glo Kinase Assay. The format is biochemical. To be noted: 1.25 nM ROCK2, 100 μM long S6 peptide, 20 μM ATP; 1 hour pre-incubation; read-out: ADP-Glo kinase activity assay ROCK2 Category. As for the experimental part: Assay for ROCK2 inhibition was performed using the protein construct N-terminal 6His-tagged ROCK2 catalytic domain 11-552 (Dundee University, UK). Protein was purified from a baculovirus expression system. Long S6 peptide ([…]) was used as substrate. Kinase reactions were carried out in 15 μl volume in a 96-well plate (black, half area) using 1.25 nM constitutively active ROCK2 kinase, 100 μM long S6 peptide, 20 μM ATP and test compound in DMSO (or DMSO only for controls). The final concentration of DMSO was 1%. Assay buffer was 50 mM HEPES pH 7.5 supplemented with 0.2 mM EDTA, 10 mM magnesium acetate, 0.01% Tween-20, 1 mM DTT and 0.01% BSA. Test compounds were pre-incubated with ROCK2 kinase for 1 hour before addition of ATP and long S6 peptide. After incubation for a further 1 hour, the amount of ADP produced was measured using ADP-Glo Kinase Assay (Promega) as per manufacturer's instructions. The luminescence was measured on a PHERAstar FS (BMG Labtech). The concentration of test compound required to inhibit ADP production by 50% (the IC50) was calculated using a four-parameter logistic function with software by Dotmatics.
The category “+” refers to compounds with a ROCK2 IC50 value of >10 μM. The category “++” refers to compounds with a ROCK2 IC50 value of 10 to 3 μM. The category “+++” refers to compounds with a ROCK2 IC50 value of 3 to 0.3 μM. The category “++++” refers to compounds with a ROCK2 IC50 value of <0.3 μM.
For the compound `Cn1nc(-c2ccc(Oc3ccccc3)cc2)nc1Nc1ccc2[nH]ncc2c1Cl` [Example 137], the IC50 lay within 0.3 to 3 µM.

With `Cn1nc(-c2ccc(OC(F)(F)F)cc2)nc1Nc1ccc2[nH]ncc2c1Cl` [Example 138], the IC50 was under 0.3 µM.

As for `COc1cc(-c2nc(Nc3ccc4[nH]ncc4c3C)n(C)n2)ccc1OCC(=O)NC1CCNC1` (stereo not drawn) [Example 141], the IC50 is under 0.3 µM.

Take `COc1cc(-c2nc(Nc3cc4cn[nH]c4cc3Cl)n(C)n2)ccc1C(=O)NCC(F)(F)F` [Example 144]: the IC50 is 3 to 10 µM.

As to `COc1cc(-c2nc(Nc3ccc4[nH]ncc4c3Cl)n(C(C)C)n2)ccc1OCC(=O)NC(C)C` [Example 145], the IC50 is under 0.3 µM.

On to `CC(C)NC(=O)COc1ccc(-c2nc(Nc3ccc4[nH]ncc4c3)n(-c3ccccc3F)n2)cc1` [Example 146], for which the IC50 was under 0.3 µM.

For `COc1cc(-c2nnc(Nc3ccc4[nH]ncc4c3)n2-c2ccccn2)ccc1OCC(=O)NC(C)C` [Example 147], the IC50 was under 0.3 µM.

Regarding `CC(C)NC(=O)COc1ccc(-c2nnc(Nc3ccc4[nH]ncc4c3)n2-c2ccccn2)cc1` [Example 148], the IC50 was under 0.3 µM.

With `COc1cc(-c2nc(Nc3ccc4[nH]ncc4c3Cl)n(-c3ccccc3)n2)ccc1OCC(=O)NC1CCNC1` (stereo not drawn) [Example 149], the IC50 was under 0.3 µM.

For the compound `COc1cc(-c2nc(Nc3ccc4[nH]ncc4c3Cl)n(-c3ccccn3)n2)ccc1OCC(=O)NC(C)C` [Example 151], the IC50 is over 10 µM.

Regarding `COc1cc(-c2nc(Nc3ccc4[nH]ncc4c3Cl)n(-c3ccncc3)n2)ccc1OCC(=O)NC(C)C` [Example 152], the IC50 is under 0.3 µM.

`COc1cc(-c2nc(Nc3ccc4[nH]ncc4c3Cl)n(-c3ccccn3)n2)ccc1C(=O)NCC(F)(F)F` [Example 153]: the IC50 is under 0.3 µM.

Turning to `O=C(COc1ccc(-c2nnc(Nc3ccc4[nH]ncc4c3)[nH]2)cc1)N1CCOCC1` [Example 154, 2-[4-[5-(1H-Indazol-5-ylamino)-4H-1,2,4-triazol-3-yl]phenoxy]-1-morpholinoethanone], the IC50 fell in the range of 0.3 to 3 µM.

Regarding `COCCNC(=O)COc1ccc(-c2nnc(Nc3ccc4[nH]ncc4c3)[nH]2)cc1` [Example 155], the IC50 fell in the range of 0.3 to 3 µM.

Turning to `O=C(COc1ccc(-c2nnc(Nc3ccc4[nH]ncc4c3)[nH]2)cc1)NC1CCNC1` (stereo not drawn) [Example 156], the IC50 was under 0.3 µM.

As to `O=C(COc1ccc(-c2nnc(Nc3ccc4[nH]ncc4c3)[nH]2)cc1)N[C@@H]1CCNC1` [Example 157], the IC50 is under 0.3 µM.

`O=C(COc1ccc(-c2nnc(Nc3ccc4[nH]ncc4c3)[nH]2)cc1)N[C@H]1CCNC1` [Example 158]: the IC50 is under 0.3 µM.

In the case of `O=C(COc1ccc(-c2nnc(Nc3ccc4[nH]ncc4c3)[nH]2)cc1)NC1CCOC1` (stereo not drawn) [Example 159], the IC50 was 0.3 to 3 µM.

Regarding `O=C(COc1ccc(-c2nnc(Nc3ccc4[nH]ncc4c3)[nH]2)cc1)NC1CCCC1` [Example 160], the IC50 is under 0.3 µM.

For `O=C(COc1ccc(-c2nnc(Nc3ccc4[nH]ncc4c3)[nH]2)cc1)NC1CCC1` [Example 161], the IC50 was under 0.3 µM.

`O=C(COc1ccc(-c2nnc(Nc3ccc4[nH]ncc4c3)[nH]2)cc1)NC1CC1` [Example 162]: the IC50 is under 0.3 µM.

In the case of `CN1CCC(NC(=O)COc2ccc(-c3nnc(Nc4ccc5[nH]ncc5c4)[nH]3)cc2)C1` (stereo not drawn) [Example 163], the IC50 was in the range of 0.3 to 3 µM.

As for `O=C(COc1ccc(-c2nnc(Nc3ccc4[nH]ncc4c3)[nH]2)cc1)NC1COC1` [Example 164], the IC50 was under 0.3 µM.

As to `COc1cc(-c2nnc(Nc3ccc4[nH]ncc4c3)[nH]2)ccc1OCC(=O)NC1CCC1` [Example 165], the IC50 was under 0.3 µM.

Regarding `CC(C)NC(=O)c1ccc(-c2nc(Nc3ccc4[nH]ncc4c3Cl)n(C)n2)cc1` [Example 166, 4-[5-[(4-chloro-1H-indazol-5-yl)amino]-1-methyl-1,2,4-triazol-3-yl]-N-isopropyl-benzamide], the IC50 is under 0.3 µM.

In the case of `COc1cc(-c2nc(Nc3ccc4[nH]ncc4c3)n(C)n2)ccc1OCC(=O)NC(C)C` [Example 167], the IC50 was under 0.3 µM.

As for `CCNC(=O)c1ccc(-c2nc(Nc3ccc4[nH]ncc4c3)n(C)n2)cc1OC` [Example 168], the IC50 is under 0.3 µM.

For `COc1cc(-c2nc(Nc3ccc4[nH]ncc4c3)n(C)n2)ccc1C(=O)NC(C)C` [Example 169], the IC50 is under 0.3 µM.

As for `COc1cc(-c2nc(Nc3ccc4[nH]ncc4c3)n(C)n2)ccc1C(=O)NC(C)(C)C` [Example 170], the IC50 was under 0.3 µM.

For the compound `Cn1nc(-c2ccc(C(=O)NCC(F)(F)F)cc2)nc1Nc1ccc2[nH]ncc2c1Cl` [Example 171], the IC50 is under 0.3 µM.

For the compound `COc1cc(-c2nc(Nc3ccc4[nH]ncc4c3Cl)n(C)n2)ccc1C(=O)N1CCOCC1` [Example 172], the IC50 lay within 0.3 to 3 µM.

Take `COc1cc(-c2nc(Nc3ccc4[nH]ncc4c3Cl)n(C)n2)ccc1C(=O)N1CC(CO)(CO)C1` [Example 173]: the IC50 was in the range of 3 to 10 µM.

Turning to `CNC(=O)c1ccc(-c2nc(Nc3ccc4[nH]ncc4c3Cl)n(C)n2)cc1OC` [Example 174], the IC50 was under 0.3 µM.

For `COc1cc(-c2nc(Nc3ccc4[nH]ncc4c3Cl)n(C)n2)ccc1C(=O)NC(C)(C)C` [Example 175], the IC50 was under 0.3 µM.

Turning to `Cn1nc(-c2ccc(C(=O)NC3CCC3)cc2)nc1Nc1ccc2[nH]ncc2c1Cl` [Example 176], the IC50 was under 0.3 µM.

Take `Cn1nc(-c2ccc(C(=O)NC3CC3)cc2)nc1Nc1ccc2[nH]ncc2c1Cl` [Example 177]: the IC50 was under 0.3 µM.

Consider `COc1cc(-c2nc(Nc3ccc4[nH]ncc4c3C)n(C)n2)ccc1C(=O)NCC(F)(F)F` [Example 178], for which the IC50 was under 0.3 µM.

As for `COc1cc(-c2nc(Nc3ccc4[nH]ncc4c3C)n(C)n2)ccc1C(=O)NC(C)C` [Example 179], the IC50 is under 0.3 µM.

`CCNC(=O)c1ccc(-c2nc(Nc3ccc4[nH]ncc4c3C)n(C)n2)cc1OC` [Example 180]: the IC50 was under 0.3 µM.

As for `COc1cc(-c2nc(Nc3ccc4[nH]ncc4c3C)n(C)n2)ccc1C(=O)NC(C)(C)C` [Example 181], the IC50 is under 0.3 µM.

Turning to `COc1cc(-c2nc(Nc3ccc4[nH]ncc4c3C)n(C)n2)ccc1C(=O)NC1CC1` [Example 182], the IC50 is under 0.3 µM.

In the case of `COc1cc(-c2nc(Nc3ccc4[nH]ncc4c3F)n(C)n2)ccc1C(=O)NC(C)C` [Example 183], the IC50 is under 0.3 µM.

With `COc1cc(-c2nc(Nc3ccc4[nH]ncc4c3F)n(C)n2)ccc1C(=O)NCC(F)(F)F` [Example 184], the IC50 was 0.3 to 3 µM and < 0.3 µM.

For the compound `COc1cc(-c2nc(Nc3ccc4[nH]ncc4c3Cl)n(C(C)C)n2)ccc1C(=O)NC(C)C` [Example 191], the IC50 is under 0.3 µM.

As to `COc1cc(-c2nc(Nc3ccc4[nH]ncc4c3Cl)n(C(C)C)n2)ccc1C(=O)NCC(F)(F)F` [Example 192], the IC50 was under 0.3 µM.

As for `COc1cc(-c2nc(Nc3ccc4[nH]ncc4c3Cl)n(C)n2)ccc1C(=O)NC(C)C` [Example 193, 4-[5-[(4-chloro-1H-indazol-5-yl)amino]-1-methyl-1,2,4-triazol-3-yl]-N-isopropyl-2-methoxy-benzamide], the IC50 was under 0.3 µM.

In the case of `COc1cc(-c2nc(Nc3ccc4[nH]ncc4c3Cl)n(C)n2)ccc1C(=O)NC1CC1` [Example 195], the IC50 was under 0.3 µM.

Consider `COc1cc(-c2nc(Nc3ccc4[nH]ncc4c3Cl)n(C)n2)ccc1C(=O)NC1CCOCC1` [Example 196], for which the IC50 is under 0.3 µM.
